Source: paper PMC12028158, “Synthesis and In Vitro Evaluation of the Anticancer Effect of Novel Phosphonium Vindoline Derivatives” (International Journal of Molecular Sciences, 2025)

How the values were obtained:
Assay type in all cases: cell-based
T-47D [1] = test: NCI60 one-dose screen; settings: Homo sapiens, T47D, read-out: Growth percent
CCRF-CEM [2] = test: NCI60 one-dose screen; settings: Homo sapiens, read-out: Growth percent
LOX IMVI [3] = test: NCI60 one-dose screen; settings: Homo sapiens, read-out: Growth percent
SK-MEL-2 = test: NCI60 one-dose screen; settings: Homo sapiens, SK-MEL-2, read-out: Growth percent
UO-31 = test: NCI60 one-dose screen; settings: Homo sapiens, UO-31, read-out: Growth percent
NCI/ADR-RES = test: NCI60 one-dose screen; settings: Homo sapiens, read-out: Growth percent
UACC-257 = test: NCI60 one-dose screen; settings: Homo sapiens, UACC-257, read-out: Growth percent
A498 = test: NCI60 one-dose screen; settings: Homo sapiens, A498, read-out: Growth percent
MDA-MB-435 = test: NCI60 one-dose screen; settings: Homo sapiens, MDA-MB-435, read-out: Growth percent
MDA-MB-231/ATCC = test: NCI60 one-dose screen; settings: Homo sapiens, MDA-MB-231, read-out: Growth percent
NCI-H522 [4] = test: NCI60 one-dose screen; settings: Homo sapiens, NCI-H522, read-out: Growth percent
HOP-92 = test: NCI60 one-dose screen; settings: Homo sapiens, HOP-92, read-out: Growth percent
786-0 = test: NCI60 one-dose screen; settings: Homo sapiens, 786-0, read-out: Growth percent
HL-60(TB) = test: NCI60 one-dose screen; settings: Homo sapiens, HL-60, read-out: Growth percent
HS 578T = test: NCI60 one-dose screen; settings: Homo sapiens, Hs-578T, read-out: Growth percent
U251 [5] = test: NCI60 one-dose screen; settings: Homo sapiens, U-251, read-out: Growth percent
HOP-62 [6] = test: NCI60 one-dose screen; settings: Homo sapiens, HOP-62, read-out: Growth percent
SF-539 = test: NCI60 one-dose screen; settings: Homo sapiens, SF-539, read-out: Growth percent
IGROV1 [7] = test: NCI60 one-dose screen; settings: Homo sapiens, IGROV-1, read-out: Growth percent
DU-145 = test: NCI60 one-dose screen; settings: Homo sapiens, DU-145, read-out: Growth percent
EKVX [8] = test: NCI60 one-dose screen; settings: Homo sapiens, read-out: Growth percent
UACC-62 = test: NCI60 one-dose screen; settings: Homo sapiens, UACC-62, read-out: Growth percent
MCF7 = test: NCI60 one-dose screen; settings: Homo sapiens, MCF7, read-out: Growth percent
HOP-62 [9] = test: NCI60 five-dose screen; settings: Homo sapiens, HOP-62
Leukemia panel = test: NCI60 five-dose screen, panel mean; settings: Homo sapiens, read-out: GI50 Mean
PC-3 = test: NCI60 five-dose screen; settings: Homo sapiens, PC-3
TK-10 = test: NCI60 five-dose screen; settings: Homo sapiens, TK-10
IGROV1 [10] = test: NCI60 five-dose screen; settings: Homo sapiens, IGROV-1
CCRF-CEM [11] = test: NCI60 five-dose screen; settings: Homo sapiens
RPMI-8226 = test: NCI60 five-dose screen; settings: Homo sapiens, RPMI-8226
Melanoma panel = test: NCI60 five-dose screen, panel mean; settings: Homo sapiens, read-out: GI50 Mean
HCC-2998 = test: NCI60 five-dose screen; settings: Homo sapiens, HCC 2998
SR = test: NCI60 one-dose screen; settings: Homo sapiens, read-out: Growth percent
ACHN = test: NCI60 five-dose screen; settings: Homo sapiens
Prostate Cancer panel = test: NCI60 five-dose screen, panel mean; settings: Homo sapiens, read-out: GI50 Mean
CAKI-1 = test: NCI60 five-dose screen; settings: Homo sapiens, CAKI-1
MDA-MB-468 = test: NCI60 five-dose screen; settings: Homo sapiens, MDA-MB-468
LOX IMVI [12] = test: NCI60 five-dose screen; settings: Homo sapiens
NCI-H460 = test: NCI60 five-dose screen; settings: Homo sapiens, NCI-H460
EKVX [13] = test: NCI60 five-dose screen; settings: Homo sapiens
T-47D [14] = test: NCI60 five-dose screen; settings: Homo sapiens, T47D
OVCAR-5 = test: NCI60 five-dose screen; settings: Homo sapiens, OVCAR-5
RXF 393 = test: NCI60 five-dose screen; settings: Homo sapiens, RXF 393
U251 [15] = test: NCI60 five-dose screen; settings: Homo sapiens, U-251
SW-620 = test: NCI60 five-dose screen; settings: Homo sapiens, SW-620
NCI-H522 [16] = test: NCI60 five-dose screen; settings: Homo sapiens, NCI-H522

## CCC12C=CCN3CC[C@@]4(c5ccc(OC)cc5N(C)[C@H]4[C@@](O)(C(=O)OC)[C@@H]1OC(C)=O)[C@@H]32 (stereo partly drawn) [compound 2, vindoline]
T-47D [1]
  activity at 10 µM: 95.7%
CCRF-CEM [2]
  activity at 10 µM: 96.5%
LOX IMVI [3]
  activity at 10 µM: 99.4%
SK-MEL-2
  activity at 10 µM: 107%
UO-31
  activity at 10 µM: 83.9%
NCI/ADR-RES
  activity at 10 µM: 110%
UACC-257
  activity at 10 µM: 98.7%
A498
  activity at 10 µM: 99.6%
MDA-MB-435
  activity at 10 µM: 105%
MDA-MB-231/ATCC
  activity at 10 µM: 97.7%
NCI-H522 [4]
  activity at 10 µM: 88.5%
HOP-92
  activity at 10 µM: 84.2%
786-0
  activity at 10 µM: 104%
HL-60(TB)
  activity at 10 µM: 104%
HS 578T
  activity at 10 µM: 113%
U251 [5]
  activity at 10 µM: 99.4%
HOP-62 [6]
  activity at 10 µM: 92.2%
SF-539
  activity at 10 µM: 104%
IGROV1 [7]
  activity at 10 µM: 98.4%
DU-145
  activity at 10 µM: 107%
EKVX [8]
  activity at 10 µM: 102%
UACC-62
  activity at 10 µM: 94.7%
MCF7
  activity at 10 µM: 99%

## CC[C@]12C=CCN3CC[C@@]4(c5ccc(OC)cc5N(C)[C@H]4[C@@](O)(C(=O)OC)[C@@H]1OC(=O)CCCC[P+](c1ccccc1)(c1ccccc1)c1ccccc1)[C@@H]32 [compound 4, reference compound]
HOP-62 [9]
  GI50: 2600 nM
Leukemia panel
  GI50: 600 nM
T-47D [1]
  activity at 10 µM: 4.99%
PC-3
  GI50: 369 nM
CCRF-CEM [2]
  activity at 10 µM: 15.6%
LOX IMVI [3]
  activity at 10 µM: 18.5%
TK-10
  GI50: 2820 nM
IGROV1 [10]
  GI50: 553 nM
SK-MEL-2
  activity at 10 µM: -41.6%
CCRF-CEM [11]
  GI50: 697 nM
UO-31
  activity at 10 µM: 81.9%
RPMI-8226
  GI50: 497 nM
NCI/ADR-RES
  activity at 10 µM: 91.6%
Melanoma panel
  GI50: 750 nM
HCC-2998
  GI50: 367 nM
SR
  activity at 10 µM: 17.9%
ACHN
  GI50: 14600 nM
UACC-257
  activity at 10 µM: 2.15%
A498
  activity at 10 µM: 52.2%
Prostate Cancer panel
  GI50: 570 nM
CAKI-1
  GI50: 2820 nM
MDA-MB-435
  activity at 10 µM: -19.7%
MDA-MB-231/ATCC
  activity at 10 µM: -2.41%
MDA-MB-468
  GI50: 170 nM
NCI-H522 [4]
  activity at 10 µM: -5.5%
LOX IMVI [12]
  GI50: 1170 nM
NCI-H460
  GI50: 2110 nM
HOP-92
  activity at 10 µM: -30%
786-0
  activity at 10 µM: 57.2%
EKVX [13]
  GI50: 586 nM
T-47D [14]
  GI50: 303 nM
HL-60(TB)
  activity at 10 µM: -63.5%
OVCAR-5
  GI50: 1820 nM
RXF 393
  GI50: 308 nM
HS 578T
  activity at 10 µM: 9.79%
U251 [5]
  activity at 10 µM: 10.9%
HOP-62 [6]
  activity at 10 µM: 26.4%
SF-539
  activity at 10 µM: 19%
IGROV1 [7]
  activity at 10 µM: -36.4%
DU-145
  activity at 10 µM: 14.7%
EKVX [8]
  activity at 10 µM: 56.1%
UACC-62
  activity at 10 µM: -6.54%
U251 [15]
  GI50: 312 nM
SW-620
  GI50: 1180 nM
MCF7
  activity at 10 µM: 4.69%
NCI-H522 [16]
  GI50: 229 nM
